Test results taken from US8920789B2, “Use of polymer D-lactic acid (PDLA) or equivalents thereof to inhibit growth of cancer cells and diagnose cancers” (The United States of America as represented by the …, priority 2011, dated 2014).

Columns and labels:
[1] = Interference with l-lactate measurement in saline (L-Lactate Accuvin test strips); conditions: d-lactic acid (0.05 mg) + l-lactic acid (0.06 mg)
Experimental: Forty mg of d-lactic acid (Sigma-Aldrich, St. Louis, Mo.; catalog no. L0625) was polymerized in a microwave oven according to the method of Pandey and Aswath (J Biomater Sci Polym Ed. 2009; 20(1):33-48). Briefly, d-lactic acid was transferred to 2 ml Reacti-Vials (Pierce Chemical Co., Rockford, Ill.) and the polymerization was carried out vented in a GE Spacemaker Model JVM 1650WH05 (Serial #900524B; manufactured April 2006) with an RF output frequency of 2450 MHz in the absence of any added solvent or catalyst. Polymerization was carried out starting at Power 1 setting on the microwave and weighing at 30 second intervals. […] Weight loss was from water during polymer esterification and dehydration. During the course of the microwave process, d-lactic acid crystals undergo a state change from a solid to a liquid and then to a gel at the end of the process. Similar procedure was used to produce PLLA with l-lactic acid.
[…] Measurement of l-lactate with L-Lactate Accuvin Test strips (Accuvin LLC, Napa, Ca), using stereospecific lactate dehydrogenase and a tetrazolium color indicator, measured less l-lactate (interference) in the experimental sample as evidenced by colorimetric determination. Experimental sample vs, control measured 10 mg/L vs, 50 mg/L of l-lactate. Other relevant tests using similar methodology and D-Lactate Accuvin Test strips are as follows:

[2] = Interference with d-lactate measurement in saline (D-Lactate Accuvin test strips); conditions: similar methodology

For `C[C@@H](O)C(=O)O` [d-lactic acid], which l-lactate test strip [1] is on record?
The l-lactate test strip was 50 mg/L.

With `C[C@H](O)C(=O)O` [l-lactic acid] as the compound, how does the “Interference with lactate measurement (in words)” value [2] read?
The value was “No interference”.
